Measurements published in PubChem BioAssay (NCI).
“And” between values parts separate entries of the source, which are not always exact repeats. Equal values may be shown once.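 1) Cells in 96-well plates. 2) Compound, 48 h, 5 concentrations. 3) Linear interpolation between surrounding doses. 4) Unreached endpoint = highest concentration. GI50 = concentration required for 50% inhibition of growth. The concentration for full growth arrest is given as TGI.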

Key:
Test in all cases: NCI tumour cell line growth inhibition, 48 h
[1] = test system: DMS 114 small cell lung
[2] = test system: DMS 273 small cell lung
[3] = test system: LXFL 529 NSCLC
[4] = test system: M19-MEL melanoma
[5] = test system: XF 498 CNS
[6] = test system: HOP-18 NSCLC
[7] = test system: SNB-78 CNS
[8] = test system: RXF-631 renal
[9] = test system: MDA-N
[10] = test system: P388/ADR leukemia

| SMILES | TGI [1] | TGI [2] | TGI [3] | TGI [4] | TGI [5] | TGI [6] | TGI [7] | TGI [9] | other results |
| --- | --- | --- | --- | --- | --- | --- | --- | --- | --- |
| CC(C)([NH-])CO.CC(C)([NH-])CO.[Cl][Cd][Cl] | 46.7 µM | 30.2 µM | 29.3 µM | 38.3 µM | 69.1 µM | – | – | – | GI50 [1]: 19.8 µM; GI50 [2]: 13.5 µM; GI50 [3]: 15 µM; GI50 [4]: 16.9 µM; GI50 [5]: 20.4 µM |
| C[C@]12CC/C(=N\O)C=C1CC[C@@H]1C2CC[C@@]2(C)C1CC[C@@H]2OC1CCCCO1 (some centres undefined) | 46.6 µM | 32.6 µM | 31.8 µM | 35.1 µM | – | 30 µM | 41.7 µM | – | – |
| Cc1ccc(S(=O)(=O)NC2(C=O)CCCC3CCCCC32)cc1 (centres undefined) | > 100 µM | > 100 µM | > 100 µM | > 100 µM | – | > 100 µM | > 100 µM | – | TGI [8]: > 100 µM |
| O=c1[nH]c(=S)[nH]c2c1CN(CCCN1CCOCC1)CN2 | – | – | – | – | – | – | – | > 100 µM | – |
| COc1ccc(/C(Cl)=C(\C=N/O)c2ccc(OC)c(OC)c2)cc1OC | > 100 µM | > 100 µM | > 100 µM | > 100 µM | > 100 µM | > 100 µM | > 100 µM | – | – |
| Cc1ccc(/C(O)=C/C(=O)C(=O)NC23CC4CC(CC(C4)C2)C3)cc1 | – | – | – | – | – | – | – | > 10 µM | – |
| CC(C)O/N=C/c1cc(NC(=S)OC(C)C)ccc1Cl | – | – | – | – | – | – | – | > 100 µM | – |
| CC12CCC3(OCCO3)C(OC(=O)c3ccccc3)=C1CCC21OCCO1 (centres undefined) | > 100 µM | > 100 µM | > 100 µM | > 100 µM | – | > 100 µM | > 100 µM | – | TGI [8]: > 100 µM |
| Cc1cccc(C(C)(C)C)c1NC(=O)CC1C(=O)Nc2ccccc2S1(=O)=O (centres undefined) | – | 14.9 µM | 24.5 µM | 24.8 µM | 23.1 µM | – | 22.1 µM | – | – |
| Nc1nc2c(ncn2C2C=CC(CO)C2)c(=O)[nH]1 (centres undefined) | – | – | – | – | – | – | – | > 100 µM | – |
| COc1ccc(-c2cc(=O)c3cc(OC)ccc3[nH]2)cc1 | > 100 µM | – | > 100 µM | > 100 µM | – | > 100 µM | > 100 µM | – | – |
| CC1CCCC(C(O)CC2CC(=O)NC(=O)C2)C1O (centres undefined) | – | – | – | – | – | – | – | > 100 µM | – |
| CCC/C(=N\NC(=S)N1CC2CCC(CC2)C1)c1ccccn1 | – | 0.374 µM and 2.35 µM | 0.143 µM and 0.129 µM | 0.298 µM and 1.46 µM | 0.0981 µM and 0.53 µM | 0.44 µM and 0.898 µM | 8.71 µM | 2.72 µM | GI50 [6]: 0.0675 µM; GI50 [7]: 0.408 µM; GI50 [5]: 0.0106 µM |
| COc1cc(N(C)C)c(OC)cc1/C=C\c1ccnc2ccccc12 | – | – | – | – | – | – | – | 3.97 µM | – |
| COc1ccc2ccccc2c1C1NC(=O)c2ccccc2N1 (centres undefined) | – | – | – | – | – | – | – | 0.413 µM | – |
| C/C1=C/C(=O)O[C@@H]2C[C@@H](CC[C@H](C)/C=C\C=C\CC1)O[C@@](O)([C@@H]1CSC(=O)N1)C2 | – | – | – | – | – | – | – | > 10 µM | – |
| CC(=O)OC(C)(C)/C(C)=C/C(=O)O[C@H]1C(=O)O[C@@H]2C[C@H]3[C@H](C)C(=O)C(O[C@@H]4O[C@H](CO)[C@@H](O)[C@H](O)[C@H]4O)=C[C@]3(C)[C@H]3[C@@H](O)[C@H](O)[C@@]4(C(=O)O)OC[C@]32[C@@H]14 | – | – | – | – | – | – | – | > 100 µM | GI50 [9]: > 100 µM |
| CN1C(=O)C2C3C=C4c5ccccc5N(c5ccccc5)C4(C2C1=O)[C@H]1C(=O)N(C)C(=O)[C@@H]31 (some centres undefined) | > 100 µM | – | > 100 µM | > 100 µM | > 100 µM | – | – | – | – |
| C/C(=N\NS(=O)(=O)c1ccc(C)cc1)P(=O)(O)O | – | – | – | – | – | – | – | > 100 µM | – |
| [N-]=[N+]=NC(c1cn(C2CC(O)C(CO)O2)c(=O)[nH]c1=O)C(Cl)I (centres undefined) | – | – | – | – | – | – | – | > 100 µM | – |
| CCC[CH2][Sn]1([CH2]CCC)[O]CC(CN(C)Cc2ccccc2)[O]1 (centres undefined) | 14.3 µM | 20.5 µM | 5 µM | 19.8 µM | 9.77 µM | – | 10.8 µM | – | GI50 [1]: 4.73 µM; GI50 [2]: 4.93 µM; GI50 [3]: 1.6 µM; GI50 [4]: 6.73 µM; GI50 [7]: 2.14 µM; GI50 [5]: 3.33 µM |

| SMILES | TGI [1] | TGI [2] | TGI [3] | TGI [4] | TGI [5] | TGI [6] | TGI [7] | TGI [9] | other results |
| --- | --- | --- | --- | --- | --- | --- | --- | --- | --- |
| O=C(O)C1(C(=O)O)CCC1.[NH2-].[NH2-].[Pt+2] | – | 228 µM | > 250 µM | – | – | 118 µM | 217 µM | > 250 µM | GI50 [2]: 64.7 µM; GI50 [6]: > 77.3 µM and 111 µM; GI50 [3]: 247 µM; GI50 [9]: 182 µM and > 220 µM; GI50 [10]: 33.3 µM; TGI [10]: 218 µM; GI50 [7]: 96.4 µM |
| COc1ccccc1-c1cc(=O)c2cc3c(cc2[nH]1)OCO3 | > 100 µM | > 100 µM | > 100 µM | > 100 µM | 75.5 µM | – | – | – | GI50 [1]: 25 µM |
| COc1cc(-c2cc(O)c(-c3ccc4ccccc4n3)c(=O)[nH]2)cc(OC)c1OC | – | – | – | – | – | – | – | 34.9 µM | – |
| CC(=O)C1C(c2ccc(N(C)C)cc2)c2cc3c(cc2OC1(C)O)OCO3 (centres undefined) | 93.3 µM | > 100 µM | – | > 100 µM | > 100 µM | > 100 µM | > 100 µM | – | – |
| O=[P+](O)c1ccsc1 | > 100 µM | > 100 µM | > 100 µM | > 100 µM | – | > 100 µM | – | – | TGI [8]: > 100 µM |
| NCC1OC(n2cnc3c(N)ncnc32)CC1O (centres undefined) | – | – | – | – | – | – | – | > 100 µM | – |
| COC(=O)c1cccn1C(=O)n1cccc1 | > 100 µM | > 100 µM | > 100 µM | > 100 µM | > 100 µM | > 100 µM | > 100 µM | – | – |
| Cc1cccc(C)c1NC(=O)C1C(=O)N(c2c(C)cccc2C)C(=O)/C1=N\N (centres undefined) | – | > 100 µM | > 100 µM | > 100 µM | – | > 100 µM | – | – | TGI [8]: > 100 µM |
| O=C(CCN1CCN(c2ccccc2)CC1)N1CCc2c([nH]c3ccccc23)C1c1cccnc1 (centres undefined) | 27 µM | 32.3 µM | 31.6 µM | 37.1 µM | – | 36.1 µM | 37 µM | – | – |
| CC(Nc1ccc(S(=O)(=O)N=C(N)N)cc1)c1c2ccccc2nc2ccccc12 (centres undefined) | > 100 µM | > 100 µM | 80.6 µM | > 100 µM | 36.1 µM | – | – | – | TGI [8]: 96.6 µM |
| CC1=C(c2ccccc2)NC(=S)C(C)C(c2ccccc2)=N1 (centres undefined) | – | – | – | – | – | – | – | 46.8 µM | – |
| CSc1nc(NC2OC(COC(C)=O)C(OC(C)=O)C(OC(C)=O)C2OC(C)=O)c2c(n1)OCC2=O (centres undefined) | > 100 µM | – | > 100 µM | > 100 µM | – | > 100 µM | > 100 µM | – | TGI [8]: > 100 µM |
| Oc1ccc(C(c2ccc(O)cc2)c2ccc(O)cc2)cc1 | – | – | – | – | – | – | – | 56 µM | – |
| Nc1nnnn1CCO | – | – | – | – | – | – | – | > 100 µM | – |
| NC(=O)/N=C1/CCC2C3CCCC2C13 | > 100 µM | > 100 µM | > 100 µM | – | > 100 µM | > 100 µM | > 100 µM | – | – |
| Cc1ccc(NC(=O)CC2Sc3ccccc3NC2=O)c(C)c1 (centres undefined) | 51.7 µM | 37.5 µM | 71.1 µM | 48.2 µM | 37.5 µM | 30.2 µM | 63.2 µM | – | TGI [8]: 33.1 µM |
| O=C(O)CCC(N=Cc1nc(-c2ccccc2)oc1O)C(=O)O (centres undefined) | > 100 µM | > 100 µM | > 100 µM | > 100 µM | – | > 100 µM | > 100 µM | – | TGI [8]: > 100 µM |
| CCOC(=O)C1c2[nH]c3ccccc3c2CCN1C(=O)c1ccc(OC)o1 (centres undefined) | – | – | – | – | – | – | – | > 10 µM | – |
| COC(=O)C(C(=O)C(=O)Nc1ccc([N+](=O)[O-])cc1[N+](=O)[O-])c1nc2ccc(Cl)cc2[nH]c1=O (centres undefined) | > 100 µM | > 100 µM | – | > 100 µM | > 100 µM | > 100 µM | > 100 µM | – | – |
| CN(C)CCNC(=O)c1cccc(N(C)C(=O)c2ccccc2)c1[N+](=O)[O-] | – | – | – | – | – | – | – | > 100 µM | – |
| CCOC(=O)N1CCC(=O)C(CNC23CC4CC(CC(C4)C2)C3)C1 (centres undefined) | – | 52.9 µM | 33.3 µM | 35.3 µM | 32.8 µM | – | – | – | TGI [8]: > 100 µM |
